Measured values: patent US4740499A, “Method of enhancing the bioactivity of atrial peptides” (Monsanto Company, priority 1986, dated 1988)

Assays:
[1] = tested on: rabbit kidney brush border membranes (RBBM); test: physchem; type: biochemical; conditions: 20 μg RBBM, 100 nM inhibitor, 60 min, 25° C.
Procedure: The kelatorphan was prepared according to the method described for compound 13 by Fournie-Saluski et al., J. Med. Chem. 28, 1158-1169 (1985). The following procedure was performed at 4° C. Rabbit kidneys were obtained fresh and were perfused with buffer A (containing 5 mM Tris, pH 7.5, 0.25 M sucrose, 3 mM MgCl2 and 1 mM EDTA) to remove the blood. (EDTA=ethylenediaminetetraacetic acid.) The kidneys were minced, homogenized in 5 volumes of ice-cold buffer A with a Brinkmann Polytron homogenizer and filtered through two layers of cheesecloth. The filtrate was centrifuged at 5,000×g for 20 min, the pellet was discarded and the supernatant was centrifuged at 15,000×g for 20 min. The supernatant was retained and then centrifuged at 100,000×g for 90 min. The pellet was resuspended in 50 mM Tris, pH 7.5, and the suspension was centrifuged at 100,000×g for 90 min. The washed pellet was resuspended in 50 mM Tris, pH 7.5, to give a final protein concentration of 4 mg/ml using the protein assay of Bradford, Anal. Biochem. 72, 248-254 (1976). The membrane preparation was assayed for aminopeptidase and alkaline phosphatase activities which are the marker enzymes for the kidney brush border. See Inui et al., Biochim. Biophys. Acta 647, 150-154 (1981). The final membrane preparation was enriched 8-fold in alkaline phosphatase activity, and 11-fold in aminopeptidase activity, compared to the homogenate. Renal brush border membranes (10-20 μg) were preincubated for 15 min at 25° C. in a solution containing the inhibitor and 50 mM Tris, pH 7.5. […] Incubations were for 60 min at 25° C. and were terminated by removing the membranes by filtration using Gelman GA-6 filters. The filtrates were immediately frozen on dry ice and were stable for 1 week when stored at -80° C. Samples containing the peptide degradation products were resolved by C18 reversed phase high pressure liquid chromatography (HPLC). The frozen samples were thawed immediately before injection onto a Vydac C18 column (4.6 mm I.D.×25 cm; 5 micron/300 Å) equilibrated with water containing 0.05% trifluoracetic acid (TFA). Peptide fragments and starting material were separated on a linear gradient of 0-35% acetonitrile also containing 0.05% TFA. Both the gradient and the flow rate (1 ml/min) were maintained by a Waters HPLC system consisting of two Model 510 pumps connected to an Automated Gradient Controller. Column effluent was monitored at 220 nm by a Waters Model 481 spectrophotometer, and the amount of atrial peptide material and peptide fragments were measured via a Hewlett-Packard Model […] integrator. […] Therefore, in those cases where the N-terminal serine was removed, the total amount of biologically active material remaining at the end of the incubation was taken as the % starting material remaining plus % des […] -AP-I or des […] -AP-III (as appropriate), as calculated from the peak areas of the individual peptides on HPLC.

[2] = HPLC analysis of thiorphan after dissolution in NaOH and neutralisation; type: physicochemical; conditions: dissolved in 0.1 N NaOH, neutralized with 0.5 N HCl, diluted with 0.9% saline
Procedure: (§1) Thiorphan was dissolved in a minimal amount of 0.1 N NaOH to produce the sodium salt. The solution was immediately neutralized using 0.5 N HCl and diluted to a final concentration with 0.9% saline.

[3] = Plasma AP-III levels (radioimmunoassay) in rats, first test: constant AP-III infusion, varied thiorphan dose; type: in vivo, rat; conditions: for AP-III Plasma concn. / Increase of plasma AP-III levels over control levels: rat; for AP-III Plasma concn.: AP-III 833 ng/kg/min i.v. infusion; for Increase of plasma AP-III levels over control levels: AP-III 833 ng/kg/min
Procedure: Plasma levels of atriopeptin III (AP-III) were tested in rats in which the AP-III was infused intravenously both with and without contemporaneous administration of thiorphan.
Male Sprague-Dawley rats, 240-310 g, were used for all tests. The rats were housed in the test facilities for at least 6 days before they were used.
Cannulas were made of PE-10 (polyethylene) tubing inserted and glued into a piece of PE-50 tubing. Rats were anesthetized with pentobarbital (50 mg/kg i.p.) and had cannulas inserted into the left femoral vein and artery. Both were inserted four cm into the vessels and tied securely. They were then tunnelled under the skin and brought out between the rat's shoulder blades and then cut so that only 1-2 cm was externalized. Cannulas were glued in place using Superglue and filled with saline containing 100 units heparin/ml. Rats were allowed to wake up and then housed individually with food and water ad libitum.
Two days after surgery, the rats were weighed and put into restraining cages that allowed limited movement. […] Blood was collected from the femoral artery and replaced with saline containing 10 units heparin/ml. In most tests, 0.3 ml blood was taken, except that when basal AP-III levels were measured 0.4 ml blood was withdrawn. Blood was immediately centrifuged in a microcentrifuge for one minute and plasma was frozen in plastic tubes placed on dry ice. Samples were kept in a -80° C. freezer until they were analyzed.
as §1
After taking the second sample, thiorphan was given as a bolus injection into the femoral artery and the line was flushed with 0.2 ml saline. The doses of thiorphan were 1,3,10 and 30 mg/kg; one set of rats received only a saline bolus as a control. Blood was taken 10,20,30 and 60 minutes after the injection of thiorphan. AP-III was infused during the entire experiment for a total of 90 minutes.
Plasma AP-III levels were analyzed by radioimmunoassay using a second antibody to separate free and bound AP-III. The label was ^125 I-AP-III that was purified by HPLC after iodination. Conditions were set so that 35-40% of the total counts were precipitated. The incubation medium contained sodium phosphate, pH 7.4, 0.25% bovine serum albumin (BSA), 0.5% sodium azide and 3% PEG-8000 (polyethylene glycol). The primary antibody was from a guinea pig immunized against AP-III. The incubations were done overnight at 6° C. The next day, 2 ml of 0.125% BSA was added to each tube and then they were centrifuged for 45 min at 3000 rpm. They were decanted and the radioactivity was counted in a Micromedic gamma counter. The standard curve contained 10 to 600 pg AP-III/tube. Only the linear portion of the curve was used for quantification. Plasma samples were diluted so that the AP-III concentrations were in the range of the standard curve.

O=C(O)CNC(=O)C(CS)Cc1ccccc1 (racemic) [thiorphan, N-(DL-2-benzyl-3-mercapto-propionyl)glycine]
Peak area as % Initial AP: AP ([1]; (c) 40 μM AP-I): 27.3%
Peak area as % Initial AP: AP + des Ser^1 -AP ([1]; (c) 40 μM AP-I): 87.9%
Peak area as % Initial AP: des Ser^1 -AP ([1]; (c) 40 μM AP-I): 60.6%
Peak area as % Initial AP: AP ([1]; (c) 40 μM AP-III): 38.1%
Peak area as % Initial AP: AP + des Ser^1 -AP ([1]; (c) 40 μM AP-III): 86.1%
Peak area as % Initial AP: des Ser^1 -AP ([1]; (c) 40 μM AP-III): 48.0%
Peak area as % Initial AP: AP ([1]; (c) 40 μM SLRR(Met^8)AP-III): 86.5%
Peak area as % Initial AP: AP + des Ser^1 -AP ([1]; (c) 40 μM SLRR(Met^8)AP-III): 86.5%
Peak area as % Initial AP: des Ser^1 -AP ([1]; (c) 40 μM SLRR(Met^8)AP-III): 0%
Degradation due to method of dissolution (HPLC analysis) [2]: no apparent degradation
AP-III Plasma concn. ([3]; thiorphan 1 mg/kg arterial bolus after 30 min sample, 40 min (10 min after thiorphan)): 23.2 ± 3.1 ng/mL
AP-III Plasma concn. ([3]; thiorphan 1 mg/kg arterial bolus after 30 min sample, 50 min (20 min after thiorphan)): 22.2 ± 3.9 ng/mL
AP-III Plasma concn. ([3]; thiorphan 1 mg/kg arterial bolus after 30 min sample, 60 min (30 min after thiorphan)): 18.7 ± 2.2 ng/mL
AP-III Plasma concn. ([3]; thiorphan 1 mg/kg arterial bolus after 30 min sample, 90 min (60 min after thiorphan)): 15.3 ± 3.9 ng/mL
AP-III Plasma concn. ([3]; thiorphan 3 mg/kg arterial bolus after 30 min sample, 40 min (10 min after thiorphan)): 26.7 ± 3.5 ng/mL
AP-III Plasma concn. ([3]; thiorphan 3 mg/kg arterial bolus after 30 min sample, 50 min (20 min after thiorphan)): 29.5 ± 4.0 ng/mL
AP-III Plasma concn. ([3]; thiorphan 3 mg/kg arterial bolus after 30 min sample, 60 min (30 min after thiorphan)): 28.9 ± 5.6 ng/mL
AP-III Plasma concn. ([3]; thiorphan 3 mg/kg arterial bolus after 30 min sample, 90 min (60 min after thiorphan)): 21.2 ± 3.9 ng/mL
AP-III Plasma concn. ([3]; thiorphan 10 mg/kg arterial bolus after 30 min sample, 40 min (10 min after thiorphan)): 24.7 ± 2.7 ng/mL
AP-III Plasma concn. ([3]; thiorphan 10 mg/kg arterial bolus after 30 min sample, 50 min (20 min after thiorphan)): 29.2 ± 3.1 ng/mL
AP-III Plasma concn. ([3]; thiorphan 10 mg/kg arterial bolus after 30 min sample, 60 min (30 min after thiorphan)): 30.2 ± 4.8 ng/mL
AP-III Plasma concn. ([3]; thiorphan 10 mg/kg arterial bolus after 30 min sample, 90 min (60 min after thiorphan)): 25.5 ± 5.5 ng/mL
AP-III Plasma concn. ([3]; thiorphan 30 mg/kg arterial bolus after 30 min sample, 40 min (10 min after thiorphan)): 22.5 ± 2.7 ng/mL
AP-III Plasma concn. ([3]; thiorphan 30 mg/kg arterial bolus after 30 min sample, 50 min (20 min after thiorphan)): 28.8 ± 5.6 ng/mL
AP-III Plasma concn. ([3]; thiorphan 30 mg/kg arterial bolus after 30 min sample, 60 min (30 min after thiorphan)): 30.7 ± 6.0 ng/mL
AP-III Plasma concn. ([3]; thiorphan 30 mg/kg arterial bolus after 30 min sample, 90 min (60 min after thiorphan)): 31.3 ± 7.8 ng/mL
Increase of plasma AP-III levels over control levels ([3]; later times after thiorphan): 3 fold
Increase of plasma AP-III levels over control levels ([3]; ten minutes after injecting thiorphan): at least 2 fold
Increase of AP-III levels upon intravenous infusion ([3]; rats, thiorphan 1-30 mg/kg of body weight): at least two-fold
Plasma AP-III concentrations vs control, analysis of variance ([3]; thiorphan 1 mg/kg, all but the last time point): statistically different from control levels
Plasma AP-III concentrations vs control, analysis of variance ([3]; thiorphan 3, 10 and 30 mg/kg, all time points after thiorphan): statistically different from control levels
